The target of one experiment is T1, Kv1.3 potassium channel (Homo sapiens, UniProt P22001).
T1 construct: gene KCNA3; His-Kv1.3 expressed in 293T cells and purified (gel shift); endogenous Kv1.3 in Jurkat T cells (patch clamp)
The experiment is described as follows: IC50 from whole-cell patch clamp in Jurkat T cells. The class given is cell-based.

A further experiment has as its target T2, mouse Kv1.3 (Mus musculus, UniProt P16390).
T2 construct: gene Kcna3; mouse Kv1.3 stably expressed in L929 cells
Briefly: whole-cell patch clamp. Type of experiment: cell-based. (In general: The patch-clamp technique gives a direct electrical read-out from membranes.)

This is an account of results in publication PMC2602975, “Clofazimine Inhibits Human Kv1.3 Potassium Channel by Perturbing Calcium Oscillation in T Lymphocytes” (PLoS ONE, 2008).

As a reminder, the IC50 is the concentration needed to halve the response being measured. A higher IC50 goes with a need for much substance.

T2 sequence (P16390 whole entry): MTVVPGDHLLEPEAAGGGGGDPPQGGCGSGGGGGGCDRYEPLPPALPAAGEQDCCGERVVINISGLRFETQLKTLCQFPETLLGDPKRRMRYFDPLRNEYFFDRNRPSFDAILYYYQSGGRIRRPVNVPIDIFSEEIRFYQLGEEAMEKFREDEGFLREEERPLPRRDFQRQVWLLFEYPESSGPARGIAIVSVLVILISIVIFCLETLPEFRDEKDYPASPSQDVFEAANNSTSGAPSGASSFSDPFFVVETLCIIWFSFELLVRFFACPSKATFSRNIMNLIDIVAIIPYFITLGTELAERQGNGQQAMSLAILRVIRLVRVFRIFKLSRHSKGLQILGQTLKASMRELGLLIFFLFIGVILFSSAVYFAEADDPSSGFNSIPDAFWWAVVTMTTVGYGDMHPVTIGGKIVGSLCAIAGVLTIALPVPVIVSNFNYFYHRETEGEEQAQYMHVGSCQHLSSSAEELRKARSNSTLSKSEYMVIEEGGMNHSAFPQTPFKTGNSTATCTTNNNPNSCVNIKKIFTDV
T1 sequence (P22001 whole entry): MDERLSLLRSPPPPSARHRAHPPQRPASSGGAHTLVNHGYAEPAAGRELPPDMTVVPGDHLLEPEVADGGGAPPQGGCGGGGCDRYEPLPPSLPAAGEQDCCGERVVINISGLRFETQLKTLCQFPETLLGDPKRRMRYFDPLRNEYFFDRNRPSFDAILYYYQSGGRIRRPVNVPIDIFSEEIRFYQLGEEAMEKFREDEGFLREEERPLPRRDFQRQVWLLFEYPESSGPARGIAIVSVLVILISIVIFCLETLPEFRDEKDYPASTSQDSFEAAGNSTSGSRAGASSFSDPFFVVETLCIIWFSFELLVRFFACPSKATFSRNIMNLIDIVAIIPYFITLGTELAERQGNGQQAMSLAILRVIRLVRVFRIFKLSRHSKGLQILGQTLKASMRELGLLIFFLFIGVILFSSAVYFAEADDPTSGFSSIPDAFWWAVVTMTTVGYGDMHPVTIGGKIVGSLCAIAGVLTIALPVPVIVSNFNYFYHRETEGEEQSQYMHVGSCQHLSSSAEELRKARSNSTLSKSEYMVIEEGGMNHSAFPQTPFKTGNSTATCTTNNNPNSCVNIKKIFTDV

Take `CC(C)/N=c1\cc2n(-c3ccc(Cl)cc3)c3ccccc3nc-2cc1Nc1ccc(Cl)cc1` [CLF, clofazimine]: the IC50 against Kv1.3 potassium channel worked out at 300 nM; on mouse Kv1.3, 470 nM.
